Assay results published in US4419123A, “Herbicidal 4-trifluoromethyl-3'-carbon-substituted-4'-substituted diphenyl ethers” (Rohm and Haas Company, priority 1981, dated 1983).

What was measured:
[1] = Preemergence herbicidal activity (% control) against monocot weeds; format: in vivo; settings: pre-emergence, 336 h, average, about two weeks after application, read-out: Herbicidal activity (% control), preemergence, monocots; for activity at 2241.7 g/ha: 2 lb./A.; for activity at 4483.4 g/ha: 4 lb./A.
Description: (§1) barnyardgrass (Echinochloa crusgalli) crabgrass (Digitaria spp.) nutsedge (Cyperus esculentus)
(§2) At 2 and 4 pounds per acre:
(§3) **Bermudagrass (Cynodon dactylon)
(§4) *downy brome (Bromus tectorum) foxtail (Setaria faberii)
(§5) Johnsongrass (Sorghum halepense) […]
(§6) quackgrass (Agropyron repens)
(§7) *ryegrass (Lolium perenne)
(§8) *wild oats (Avena factua)
(§9) *yellow millet (Panicum miliaceum)
(§10) The following test procedure is employed.

[2] = Postemergence herbicidal activity (% control) against monocot weeds; format: in vivo; settings: post-emergence, 336 h, average, about two weeks after application, read-out: Herbicidal activity (% control), postemergence, monocots; for activity at 2241.7 g/ha: 2 lb./A.; for activity at 4483.4 g/ha: 4 lb./A.
Description: as §1, §2, §3, §4, §5, §6, §7, §8, §9, §10

corn = assay: Crop tolerance (selective herbicidal activity), corn; format: in vivo
Method: as §10
(§11) Following the general test procedure of Example 37, diphenyl ethers are evaluated for significant tolerance (as shown by 50% or less kill of the test crop at levels of application which give more than 50% kill of many or all of the weeds of Example 73) towards some or all of the following common agronomic crops (not all compounds tested against all crops): alfalfa, snapbeans, corn, cotton, cucumbers, peanuts, rape, rice, safflower, soybeans, tomatoes, and wheat.

peanuts = assay: Crop tolerance (selective herbicidal activity), peanuts; format: in vivo
Method: as §10, §11

rice = assay: Crop tolerance (selective herbicidal activity), rice; format: in vivo
Method: as §10, §11

soybeans = assay: Crop tolerance (selective herbicidal activity), soybeans; format: in vivo
Method: as §10, §11

wheat = assay: Crop tolerance (selective herbicidal activity), wheat; format: in vivo
Method: as §10, §11

[3] = Preemergence herbicidal activity (% control) against dicot weeds; settings: pre-emergence, 336 h; for activity at 2241.7 g/ha: read-out: Herbicidal activity (% control), preemergence, dicots, 2 lb./A., average, about two weeks after application; for activity at 4483.4 g/ha: read-out: Herbicidal activity (% control), preemergence, dicots, 4 lb./A., average, about two weeks after application
[4] = Postemergence herbicidal activity (% control) against dicot weeds; settings: post-emergence, 336 h; for activity at 2241.7 g/ha: read-out: Herbicidal activity (% control), postemergence, dicots, 2 lb./A., average, about two weeks after application; for activity at 4483.4 g/ha: read-out: Herbicidal activity (% control), postemergence, dicots, 4 lb./A., average, about two weeks after application
[5] = postemergence applications or applications on transplanted rice

| Compound | activity at 2241.7 g/ha [1] [%] | activity at 4483.4 g/ha [1] [%] | activity at 2241.7 g/ha [2] [%] | activity at 4483.4 g/ha [2] [%] | Tolerance to corn (corn; postemergence applications) | Tolerance to peanuts (peanuts; postemergence applications) | Tolerance to rice (rice; [5]) | Tolerance to soybeans (soybeans; preemergence applications) | Tolerance to wheat (wheat; postemergence applications) | Tolerance to wheat (wheat; preemergence applications) | activity at 2241.7 g/ha [3] [%] | activity at 4483.4 g/ha [3] [%] | activity at 2241.7 g/ha [4] [%] | activity at 4483.4 g/ha [4] [%] | Tolerance to corn (corn; preemergence applications) | Tolerance to peanuts (peanuts; preemergence applications) | Tolerance to rice (rice; preemergence applications) | Tolerance to soybeans (soybeans; postemergence or layby applications) |
| --- | --- | --- | --- | --- | --- | --- | --- | --- | --- | --- | --- | --- | --- | --- | --- | --- | --- | --- |
| CC(=O)Oc1cc(Oc2ccc(C(F)(F)F)cc2Cl)ccc1[N+](=O)[O-] [Example 18, 2-Chloro-α,α,α-trifluoro-p-tolyl-3-acetoxy-4-nitrophenylether] | 99 | 67 | 28 | 28 | Tolerance (significant tolerance (as shown by 50% or less kill of the test crop at levels of application which give more than 50% kill of many or all of the weeds of Example 73)) | Tolerance (significant tolerance (as shown by 50% or less kill of the test crop at levels of application which give more than 50% kill of many or all of the weeds of Example 73)) | Tolerance (significant tolerance (as shown by 50% or less kill of the test crop at levels of application which give more than 50% kill of many or all of the weeds of Example 73)) | Tolerance (significant tolerance (as shown by 50% or less kill of the test crop at levels of application which give more than 50% kill of many or all of the weeds of Example 73)) | Tolerance (significant tolerance (as shown by 50% or less kill of the test crop at levels of application which give more than 50% kill of many or all of the weeds of Example 73)) | Tolerance (significant tolerance (as shown by 50% or less kill of the test crop at levels of application which give more than 50% kill of many or all of the weeds of Example 73)) | 100 | 100 | 98 | 86 |  |  |  |  |
| CCNc1cc(Oc2ccc(C(F)(F)F)cc2Cl)ccc1[N+](=O)[O-] [Example 19, 2-Chloro-α,α,α-trifluoro-p-tolyl-3-ethylamino-4-nitrophenyl ether] | 77 | 91 | 94 | 84 | Tolerance (significant tolerance (as shown by 50% or less kill of the test crop at levels of application which give more than 50% kill of many or all of the weeds of Example 73)) |  |  | Tolerance (significant tolerance (as shown by 50% or less kill of the test crop at levels of application which give more than 50% kill of many or all of the weeds of Example 73)) |  | Tolerance (significant tolerance (as shown by 50% or less kill of the test crop at levels of application which give more than 50% kill of many or all of the weeds of Example 73)) | 91 | 96 | 97 | 98 | Tolerance (significant tolerance (as shown by 50% or less kill of the test crop at levels of application which give more than 50% kill of many or all of the weeds of Example 73)) | Tolerance (significant tolerance (as shown by 50% or less kill of the test crop at levels of application which give more than 50% kill of many or all of the weeds of Example 73)) | Tolerance (significant tolerance (as shown by 50% or less kill of the test crop at levels of application which give more than 50% kill of many or all of the weeds of Example 73)) |  |
| CCN(CC)c1cc(Oc2ccc(C(F)(F)F)cc2Cl)ccc1[N+](=O)[O-] [Example 21, 2-Chloro-α,α,α-trifluoro-p-tolyl-3-diethylamino-4-nitrophenyl ether] | 79 | 91 | 90 | 74 | Tolerance (significant tolerance (as shown by 50% or less kill of the test crop at levels of application which give more than 50% kill of many or all of the weeds of Example 73)) |  |  | Tolerance (significant tolerance (as shown by 50% or less kill of the test crop at levels of application which give more than 50% kill of many or all of the weeds of Example 73)) | Tolerance (significant tolerance (as shown by 50% or less kill of the test crop at levels of application which give more than 50% kill of many or all of the weeds of Example 73)) |  | 90 | 99 | 94 | 96 | Tolerance (significant tolerance (as shown by 50% or less kill of the test crop at levels of application which give more than 50% kill of many or all of the weeds of Example 73)) | Tolerance (significant tolerance (as shown by 50% or less kill of the test crop at levels of application which give more than 50% kill of many or all of the weeds of Example 73)) | Tolerance (significant tolerance (as shown by 50% or less kill of the test crop at levels of application which give more than 50% kill of many or all of the weeds of Example 73)) |  |
| CCC(=O)Nc1cc(Oc2ccc(C(F)(F)F)cc2Cl)ccc1[N+](=O)[O-] [Example 34] | 83 | 35 | 47 | 32 | Tolerance (significant tolerance (as shown by 50% or less kill of the test crop at levels of application which give more than 50% kill of many or all of the weeds of Example 73)) | Tolerance (significant tolerance (as shown by 50% or less kill of the test crop at levels of application which give more than 50% kill of many or all of the weeds of Example 73)) | Tolerance (significant tolerance (as shown by 50% or less kill of the test crop at levels of application which give more than 50% kill of many or all of the weeds of Example 73)) | Tolerance (significant tolerance (as shown by 50% or less kill of the test crop at levels of application which give more than 50% kill of many or all of the weeds of Example 73)) | Tolerance (significant tolerance (as shown by 50% or less kill of the test crop at levels of application which give more than 50% kill of many or all of the weeds of Example 73)) | Tolerance (significant tolerance (as shown by 50% or less kill of the test crop at levels of application which give more than 50% kill of many or all of the weeds of Example 73)) | 85 | 52 | 90 | 89 | Tolerance (significant tolerance (as shown by 50% or less kill of the test crop at levels of application which give more than 50% kill of many or all of the weeds of Example 73)) | Tolerance (significant tolerance (as shown by 50% or less kill of the test crop at levels of application which give more than 50% kill of many or all of the weeds of Example 73)) | Tolerance (significant tolerance (as shown by 50% or less kill of the test crop at levels of application which give more than 50% kill of many or all of the weeds of Example 73)) | Tolerance (significant tolerance (as shown by 50% or less kill of the test crop at levels of application which give more than 50% kill of many or all of the weeds of Example 73)) |
